Experimental data from ChEMBL document CHEMBL4673400, “Potential of Cyclin-Dependent Kinase Inhibitors as Cancer Therapy” (ACS Med Chem Lett, 2021).

What follows are molecules tested against CDK6/cyclin D1 (Homo sapiens, UniProt Q00534).
Sequence of CDK6/cyclin D1 (P24385 whole entry): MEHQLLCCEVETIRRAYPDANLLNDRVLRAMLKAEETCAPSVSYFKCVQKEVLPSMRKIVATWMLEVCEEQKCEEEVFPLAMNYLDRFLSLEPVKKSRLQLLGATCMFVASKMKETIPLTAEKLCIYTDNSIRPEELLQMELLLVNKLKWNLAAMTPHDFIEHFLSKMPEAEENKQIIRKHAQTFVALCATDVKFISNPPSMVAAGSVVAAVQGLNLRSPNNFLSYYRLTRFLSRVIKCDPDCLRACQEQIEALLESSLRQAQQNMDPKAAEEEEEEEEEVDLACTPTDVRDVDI
Sequence of CDK6/cyclin D1 (Q00534 whole entry): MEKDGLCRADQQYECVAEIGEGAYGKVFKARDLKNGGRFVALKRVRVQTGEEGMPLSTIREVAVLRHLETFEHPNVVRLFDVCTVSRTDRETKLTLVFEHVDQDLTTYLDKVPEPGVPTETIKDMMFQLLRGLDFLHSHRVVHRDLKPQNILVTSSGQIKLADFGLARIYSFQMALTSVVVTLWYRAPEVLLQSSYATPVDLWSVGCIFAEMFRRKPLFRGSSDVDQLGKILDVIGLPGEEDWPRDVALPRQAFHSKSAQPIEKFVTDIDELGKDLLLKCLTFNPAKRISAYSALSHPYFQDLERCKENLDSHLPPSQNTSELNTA
Molecule C[C@@]1(O)CCC[C@H]1n1c(=O)ccc2cnc(NC3CCN(S(=O)(=O)CC4CC4)CC3)nc21 has a Ki of 0.88 nM.

Each molecule was assayed against Cyclin-dependent kinase 2/cyclin E1 (Homo sapiens, UniProt P24941).
Description: Inhibition of recombinant full length wild-type phosphorylated CDK2/Cyclin E1 (unknown origin) expressed in baculovirus expression system assessed as reduction in production of ADP using 5-FAM-QSPKKG-CONH2 peptide as substrate preincubated with enzyme for 15 mins followed by further incubation with ATP for 45 mins by fluorescence-based microfluidic mobility shift assay
For C[C@@]1(O)CCC[C@H]1n1c(=O)c(CC#N)cc2cnc(NC3CCN(S(C)(=O)=O)CC3)nc21, the Ki was 0.16 nM.
C[C@@]1(O)CCC[C@H]1n1c(=O)ccc2cnc(NC3CCN(S(=O)(=O)CC4CC4)CC3)nc21 showed a Ki of 0.25 nM.
In the case of C[C@@H]1[C@H](O)CC[C@H]1n1c(=O)ccc2cnc(NC3CCN(S(C)(=O)=O)CC3)nc21, the Ki is reported as 0.12 nM.
With CNS(=O)(=O)N1CCC(Nc2ncc3ccc(=O)n([C@@H]4CCC[C@@]4(C)O)c3n2)CC1 the Ki was 0.28 nM.
C[C@]1(O)CCC[C@@H]1n1c(=O)ccc2cnc(NC3CCN(S(=O)(=O)c4nccs4)CC3)nc21 showed a Ki of 7.32 nM.
C[C@@]1(O)CCC[C@H]1n1c(=O)ccc2cnc(NC3CCN(S(N)(=O)=O)CC3)nc21 showed a Ki of 0.1 nM.
CNS(=O)(=O)N1CCC(Nc2ncc3cc(Cl)c(=O)n([C@@H]4CCC[C@@]4(C)O)c3n2)CC1 showed a Ki of 0.2 nM.
With CS(=O)(=O)N1CCC(Nc2ncc3cc(CC(N)=O)c(=O)n([C@@H]4CCC[C@@H](O)C4)c3n2)CC1 the Ki was 1.73 nM.
